{
  "source": "ChEMBL document CHEMBL4196117",
  "about": "“PK/PD Disconnect Observed with a Reversible Endothelial Lipase Inhibitor” (ACS Med Chem Lett, 2018)",
  "key": {"[1]": {"experiment": "Total AUC in CD1 mouse at 1 mg/kg, iv administered as bolus dose", "assay_type": "ADME, organism-based", "set-up": "dose 1 mg/kg, time AUCmax, route intravenous", "details": "in vivo"}, "[2]": {"system": "Mus musculus", "experiment": "fCmin in C57BL/6J mouse at 50 mg/kg, po administered once daily for 5 days measured 24 hrs post last dose", "assay_type": "ADME, organism-based", "details": "in vivo"}, "[3]": {"experiment": "Ratio of fCmin in C57BL/6J mouse to IC50 for recombinant mouse endothelial lipase expressed in HEK293F cells using HDL as substrate", "assay_type": "ADME, cell-based"}, "[4]": {"experiment": "Cmax in CD1 mouse at 1 mg/kg, iv administered as bolus dose", "assay_type": "ADME, organism-based", "set-up": "dose 1 mg/kg, route intravenous", "details": "in vivo"}, "[5]": {"experiment": "Ratio of fCmax in C57BL/6J mouse to IC50 for recombinant mouse endothelial lipase expressed in HEK293F cells using HDL as substrate", "assay_type": "ADME, cell-based"}, "[6]": {"system": "Mus musculus", "experiment": "Free drug level in CD1 mouse at 1 mg/kg, po administered as bolus dose measured after 24 hrs", "assay_type": "ADME, organism-based", "details": "in vivo"}, "[7]": {"experiment": "Oral bioavailability in CD1 mouse at 1 mg/kg administered as bolus dose", "assay_type": "ADME, organism-based", "details": "in vivo"}, "[8]": {"experiment": "Ratio of fCmax in hamster to IC50 for recombinant mouse endothelial lipase expressed in HEK293F cells using HDL as substrate", "assay_type": "ADME, cell-based"}, "[9]": {"experiment": "Half life in CD1 mouse at 1 mg/kg, po administered as bolus dose", "assay_type": "ADME, organism-based", "details": "in vivo"}, "[10]": {"target": "T1, Endothelial lipase (Homo sapiens, UniProt Q9Y5X9)", "T1 sequence (Q9Y5X9 whole entry)": "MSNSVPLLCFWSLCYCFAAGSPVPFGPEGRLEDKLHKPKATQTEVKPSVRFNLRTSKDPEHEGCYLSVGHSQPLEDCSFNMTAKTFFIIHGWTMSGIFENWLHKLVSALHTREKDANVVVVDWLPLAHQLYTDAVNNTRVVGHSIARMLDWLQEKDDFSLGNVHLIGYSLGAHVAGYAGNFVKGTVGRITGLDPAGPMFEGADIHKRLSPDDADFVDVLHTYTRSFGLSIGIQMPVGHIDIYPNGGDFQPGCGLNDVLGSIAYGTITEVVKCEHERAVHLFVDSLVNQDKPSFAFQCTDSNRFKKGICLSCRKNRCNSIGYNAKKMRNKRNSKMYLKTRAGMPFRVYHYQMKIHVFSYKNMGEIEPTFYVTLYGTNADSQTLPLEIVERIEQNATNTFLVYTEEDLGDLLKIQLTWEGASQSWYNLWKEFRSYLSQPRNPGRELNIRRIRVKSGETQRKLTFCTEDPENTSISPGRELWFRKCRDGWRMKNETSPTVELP", "experiment": "Inhibition of endothelial lipase in human HT1080 cells using HDL as substrate pretreated for 10 mins followed by substrate addition and measured after 30 mins by LC/MS/MS analysis", "assay_type": "cell-based"}, "[11]": {"experiment": "Tmax in CD1 mouse at 1 mg/kg, iv administered as bolus dose", "assay_type": "ADME, organism-based", "details": "in vivo"}, "[12]": {"experiment": "Half life in CD1 mouse at 1 mg/kg, iv administered as bolus dose", "assay_type": "ADME, organism-based", "details": "in vivo"}, "[13]": {"system": "Hamster", "experiment": "fCmax in hamster at 50 mg/kg, po qd for 7 days measured 6 hrs post dose on day 5", "assay_type": "ADME, organism-based", "details": "cricetinae, in vivo"}, "[14]": {"system": "Mus musculus", "experiment": "Ratio of total AUC in CD1 mouse at 10 mg/kg, po administered as bolus dose to total AUC in CD1 mouse at 1 mg/kg, po administered as bolus dose", "assay_type": "ADME, organism-based", "details": "in vivo"}, "[15]": {"experiment": "Protein binding in CD1 mouse plasma at 1 mg/kg, po administered as bolus dose", "assay_type": "ADME, organism-based", "details": "read-out: PPB (converted)"}, "[16]": {"experiment": "Protein binding in CD1 mouse plasma assessed as unbound fraction at 1 mg/kg, po administered as bolus dose", "assay_type": "ADME, organism-based"}, "[17]": {"experiment": "Total AUC in CD1 mouse at 1 mg/kg, po administered as bolus dose", "assay_type": "ADME, organism-based", "set-up": "dose 1 mg/kg, route oral, time AUCmax", "details": "in vivo"}, "[18]": {"experiment": "Cmin in C57BL/6J mouse at 50 mg/kg, po administered once daily for 5 days measured 24 hrs post last dose", "assay_type": "ADME, organism-based", "details": "in vivo, read-out: Cmin"}, "[19]": {"target": "T1, Endothelial lipase", "experiment": "Inhibition of endothelial lipase in human HT1080 cells using PED-A1 containing DMPG vesicles as substrate pretreated for 20 mins followed by substrate addition and measured every 20 secs for 10 mins by fluorescence assay", "assay_type": "cell-based"}, "[20]": {"experiment": "Protein binding in hamster plasma at 50 mg/kg, po qd for 7 days measured 6 hrs post dose on day 5", "assay_type": "ADME, organism-based", "details": "cricetinae, read-out: PPB (converted)"}, "[21]": {"system": "Mus musculus", "experiment": "Ratio of total AUC in CD1 mouse at 50 mg/kg, po administered as bolus dose to total AUC in CD1 mouse at 1 mg/kg, po administered as bolus dose", "assay_type": "ADME, organism-based", "details": "in vivo"}, "[22]": {"experiment": "Cmax in CD1 mouse at 1 mg/kg, po administered as bolus dose", "assay_type": "ADME, organism-based", "set-up": "dose 1 mg/kg, route oral", "details": "in vivo"}, "[23]": {"experiment": "Drug level in CD1 mouse at 1 mg/kg, po administered as bolus dose measured after 24 hrs", "assay_type": "ADME, organism-based", "details": "in vivo, read-out: Drug uptake"}, "[24]": {"experiment": "Cmax in C57BL/6J mouse at 50 mg/kg, po administered once daily for 5 days measured 6 hrs post last dose", "assay_type": "ADME, organism-based", "set-up": "dose 50 mg/kg, route oral", "details": "in vivo"}, "[25]": {"system": "Mus musculus", "experiment": "fCmax in C57BL/6J mouse at 50 mg/kg, po administered once daily for 5 days measured 6 hrs post last dose", "assay_type": "ADME, organism-based", "details": "in vivo"}, "[26]": {"experiment": "Tmax in CD1 mouse at 1 mg/kg, po administered as bolus dose", "assay_type": "ADME, organism-based", "details": "in vivo"}},
  "data": [
    {"smiles": "CCN1CC(C(=O)NC(C)CCc2ccc(Cl)c(Cl)c2)=C(O)C1=O", "note": "(stereo in doubt; 7c)", "values": [
      {"measurement": "AUC", "setting": "[1]", "value": 304, "unit": "µM·h"},
      {"measurement": "fCmin", "setting": "[2]", "value": 1.3, "unit": "µM"},
      {"measurement": "Ratio", "setting": "[3]", "value": 13},
      {"measurement": "Cmax", "setting": "[4]", "value": 39, "unit": "µM"},
      {"measurement": "Ratio", "setting": "[5]", "value": 55},
      {"measurement": "Drug uptake(free)", "setting": "[6]", "value": 99, "unit": "nM"},
      {"measurement": "bioavailability", "setting": "[7]", "value": 96, "unit": "%"},
      {"measurement": "Ratio", "setting": "[8]", "value": 51},
      {"measurement": "half-life", "setting": "[9]", "value": 13, "unit": "h"},
      {"measurement": "IC50", "setting": "[10]", "value": 218, "unit": "nM"},
      {"measurement": "Tmax", "setting": "[11]", "value": 3, "unit": "min"},
      {"measurement": "half-life", "setting": "[12]", "value": 13, "unit": "h"},
      {"measurement": "fCmax", "setting": "[13]", "value": 5.1, "unit": "µM"},
      {"measurement": "Ratio AUC", "setting": "[14]", "value": 7.5},
      {"measurement": "fraction unbound", "setting": "[15]", "value": 0.023},
      {"measurement": "fraction unbound", "setting": "[16]", "value": 0.023},
      {"measurement": "AUC", "setting": "[17]", "value": 292, "unit": "µM·h"},
      {"measurement": "concentration at 24 h", "setting": "[18]", "value": 57, "unit": "µM"},
      {"measurement": "IC50", "setting": "[19]", "value": 148, "unit": "nM"},
      {"measurement": "fraction unbound at 6 h", "setting": "[20]", "value": 0.016},
      {"measurement": "Ratio AUC", "setting": "[21]", "value": 18},
      {"measurement": "Cmax", "setting": "[22]", "value": 15, "unit": "µM"},
      {"measurement": "concentration at 24 h", "setting": "[23]", "value": 4.31, "unit": "µM"},
      {"measurement": "Cmax", "setting": "[24]", "value": 238, "unit": "µM"},
      {"measurement": "fCmax", "setting": "[25]", "value": 5.5, "unit": "µM"},
      {"measurement": "Tmax", "setting": "[26]", "value": 0.5, "unit": "h"}
    ]}
  ]
}
